Here are results for 1 substance from patent US7378438B2, “Beta-agonist compounds comprising nitric oxide donor groups and reactive oxygen species scavenger groups and their use in the treatment of respiratory disorders” (Yissum Research Development Company of the Hebrew …, priority 2002, dated 2008).

One assay deals with tracheal rings. The experiment in a line: Relaxation studies on pre-contracted tracheal rings. In kind it is cell-based, guinea pigs. As to conditions: FIG. 1; tracheal rings contracted with methacholine, histamine or leukotriene D4; compared with salbutamol and compound 2a. The protocol: The assays as described here are also described in, for example, U.S. Pat. No. 4,992,474 and Jansen et al.(1992) J. Pharmacol. Exptl. TherapeuticsI 261(1):154-160.
(§1) Male Hartley guinea pigs (500-600 g) were anesthetized by intraperitoneal injection of ketamine and xylazine (50 and 10 mg/kg, respectively). The heart and lungs were excised en bloc and tracheas were removed and placed in Krebs-Henseleit buffer composed of (mM): NaCl 118, KCl 5.4, NaH2PO4 1.01, NaHCO3 25, MgSO4 0.69, […], glucose 11.1, pH 7.4. Tracheas were then dissected free from surrounding fat and connective tissue and cut into 1-2-mm thick rings. The tracheal rings were then placed in buffer and continuously gassed with 95% O2 and 5% CO2.
Tracheal rings were suspended on stainless steel hooks in 10 ml of oxygenated (95% O2, 5% CO2) Krebs-Henseleit buffer at 37° C. and connected to transducer (Experimetria Model) for recording changes in isometric force. The tracheal rings were equilibrated for 60 min under a load of 1 g and then primed twice by exposure to 100 μM methacholine. Tissues were contacted with methacholine, histamine, or leukotriene D4 at concentrations determined to approximately generate 50% of maximal tone, after which cumulative relaxation-response curves were constructed. […]

The subject of assay [1] is NO-guanylyl cyclase pathway. The assay can be described thus: Cyclic nucleotide (cGMP) assay in tracheal rings. In kind it is cell-based, guinea pigs. As to conditions: FIG. 2. The protocol: as §1
Tracheal rings in Krebs-Heneseleit solution were exposed to a 5-100 μM of the test compound for 30-90 seconds. Reaction was terminated by the addition of ice-cold 10% trichloroacetic acid and rapidly frozen in ethanol-saturated dry ice. In the methylene blue experiment, rings were pre-exposed methylene blue, a guanylyl cyclase inhibitor, for 30 min. Tissues were then individually pulverized with a glass homogenizer and centrifuged at 8000×g for 5 min. The clear supernatant was extracted with water-saturated ether and assayed for cGMP using commercially available radioimmunoassay kits as described by the manufacturer (Amersham Biosciences, Piscataway, N.J.).

For the substance “5-(2-tert-Butylamino-1-S-nitroso-ethyl)-1,1,3,3-tetramethyl-isoindolin-2-yloxyl [compound 2]”, in the assay on tracheal rings, the “relaxation response (relax. %) versus log of concentration” value is “more effective relaxant compound than either salbutamol or the non-nitrosolated precursor of compound 2, compound 2a”. In addition, the “cGMP response of tracheal rings” value in assay [1] (5-100 μM test compound for 30-90 seconds, radioimmunoassay, compared with control and salbutamol) is reported as “elevates the production of cGMP”. Besides, the “cGMP response of tracheal rings in the presence of methylene blue (MB)” value in assay [1] (rings pre-exposed to methylene blue, a guanylyl cyclase inhibitor, for 30 min) was “reduces the efficacy of compound 2”.
